Laboratory results as given in patent publication US20120131697A1, “GENE ENCODING AUXIN RECEPTOR PROTEIN DERIVED FROM RICE AND USE THEREOF” (REPUBLIC OF KOREA (MANAGEMENT: RURAL DEVELOPMENT …, priority 2009, published 2012).

B1: recombinant protein: recombinant auxin receptor protein ABP57 from rice, expressed in E. coli as MBP fusion, MBP removed (SEQ ID NO: 1) (protein, listed as Oryza sativa)
chain: MAEIVSSVVVHEAVNQIIHGLVNWNERKSSAEENMERLEMAHIRLEAALETSCKWRITDSSLLCWQKKLKRAAQECDDTLRKCRQRILEQEEAEQEVRNSSIPRRIAHATKSLVSSLFYSNIDGSCRSAVRRFEWFADGANEFLRFVEFGGTPHQYLFFDPLIRQLLAGKTLEYKLVSENKYRLFVIRPFCISENRIEARLIFDSKNASALEDDFFLCMLLQVSESVDILGIVIKCLQLFNPHFMSTAESVRNELTQLPSQDFTWVPYAESCHKKHWDNIHSITTQWFRPNPLCCKQHGQNHSCESSNLGMPSVQGVSLGPVIEVSLQCHVPVPEFREQGTIVKGKPSLKKCPHMKVDLVYTPHGSSQDLLPEIKSSVIEVINGDKQHCLHTNIALELMEEIMLPRAVDCFHENAEAKLYQMLWKSKHGGAYLQVMKATMNTRSTQRTIRGSRKAKLLQQQGHKTQHRTNAISDFLNLWSAHAPVQLQGSILDWIQKEKEAQLAPPLLRLKF

What was measured:
ABP57 = ABP57 (Oryza sativa subsp. japonica, UniProt B7ELI0); test: Scatchard analysis of binding between recombinant ABP57 and auxin hormone IAA; design: species or system rice; conditions: recombinant protein
[1] = tested on: proton pump in plasma membrane; test: Activation of proton pump in rice plasma membrane by ABP57 protein (fluorescence analyzer, Hill plot); type: biochemical
Method: The purified protein and the proton pump in plasma membrane, which had been separated from rice, were admixed with each other, and then the activity of proton pump was measured by fluorescence analyzer.
The change in degree of activating proton pump according to concentration of the recombinant protein was measured and analyzed by Hill plot analysis. […] Further, this value was very close to the Hill coefficient of 0.97, which was obtained by previous studies for the interaction between the proton pump and natural ABP57 (FIG. 8).

Molecule	Kd (ABP57; FIG. 9, read-out: IAA dissociation constant) [µM]	number of binding site (ABP57; corresponds to low affinity binding site of natural ABP57)	Hill coefficient ([1]; degree of activating proton pump according to concentration of recombinant protein, Hill plot, FIG. 8)	activity of proton pump ([1]; purified recombinant protein admixed with proton pump in plasma membrane separated from rice, FIG. 7)
O=C(O)Cc1c[nH]c2ccccc12 [IAA, indole-3-acetic acid]	3.6	1		
B1			0.94	increase in the activity of proton pump
